For one compound, acute lethal concentration results are on record in US7763578B2, “Preparation of polymeric foams using hydrofluoroether nucleating agents” (3M Innovative Properties Company, priority 2004, dated 2010).

The data set is described as follows: Acute toxicity (acute lethal concentration in air). It counts as in vivo. The following applies: 10,000 ppm is its saturated concentration in air at room temperature. The text has this:
In addition to providing useful performance as nucleating agents, the segregated ethers useful herein can offer additional important benefits in safety of use and in environmental compatibility (e.g., zero ozone depletion potential and low atmospheric lifetime). For example, 3M NOVEC Brand HFE-7500 has low acute toxicity (its acute lethal concentration is greater than 10,000 ppm which is its saturated concentration in air at room temperature). […] Further, polymeric foams produced in accordance with the invention have excellent thermal insulation properties.

Take `CCOC(F)(C(F)(F)C(F)(F)C(F)(F)F)C(F)(C(F)(F)F)C(F)(F)F` (stereo not shown) [3M NOVEC Brand HFE-7500, C3F7CF(OC2H5)CF(CF3)2]: the acute lethal concentration result is “greater than 10,000 ppm”.
